The nature of data set [1]: T1 & T2 measurements of contrast agents (proton relaxation times by NMR). It is filed as physicochemical. To be noted: for T1 / T2: 0.005M in 0.08% physiological saline, 10% heavy water. On the procedure: To these samples, 10% of heavy water was added to obtain a lock signal. As for the blank, 0.08% physiological saline solution was prepared. […] The respective RD values were set sufficiently high in order to eliminate their affects to the test results. […] The respective values of vd and vc as used were those values which were sufficient for parameter-fitting.

Data set [2] in a line: Wash-out time / retention time in blood and tissues. Conditions: in vivo. How it is done:
The retention time (in blood) of the complex compound of said structural formula (I) according to the present invention is within the clinically effective range. Whereas DTPA-Gd, which is a conventional contrast agent, has a wash-out time of approximately 30 minutes, the compound of said structural formula (I) of the present invention has a wash-out time (from the tissues) of approximately 1 hour and 30 minutes. […] Today, in using MR angiography, which has undergone significant advancement, a pulse sequence is required. However, the contrast agent of the present invention can contrast vessels without such pulse sequence while it is also useful as a diagnostic contrast agent for intravenous administration.

For data set [3] the following is noted: washed out via urination; cited from earlier work.
Data set [4] is described as follows: Comparative contrast imaging (spin-echo MRI) in mouse after abdominal administration of contrast agents. It is filed as in vivo. Conditions: 0.01M at 0.2 ml/10 g, scanned 40 minutes after administration, Set 1 and Set 2. How it is done:
As for the samples for obtaining magnetic resonance imaging, the appropriate amounts of Gd-DTPA (a commercial contrast agent, Magnevist manufactured by Schering, Inc.), octa(1,4,7,10-tetraoxaundecyl)Gd-phthalocyanine (hereinafter referred to as GdPC-Fuxl-6) and octa(1,4,7,10-tetraoxaundecyl)Mn-phthalocyanine (hereinafter referred to as MnPC-Fuxl-18) were dissolved in 0.08% saline solution respectively, and the respective samples at concentration of 0.01M were used. This was in reference to the administration of commercial Gd-DTPA in human at 0.5M concentration under the condition of 0.4 ml/kg in 0.2 ml.
The above contrast agents of 0.01M concentration were administrated to mouse at 0.2 ml/10 g (female ICR, 27˜30 g, n=6). In the experiment, […], which is the maximum value in the acceptable range of the dose of the contrast agent, were injected to more clearly ascertain their effects. As for the blank for comparison purposes, the solution of 0.08% NaCl was administered. After the abdominal administration of the contrast agents, followed by a thirty-minute wait, the anesthetics (solution of a mixture of rompum, ketamin, and distilled water at 1.5:1.5:7) were injected thereto in order to sufficiently penetrate the contrast agents into the abdominal organs (the images of which were to be examined). […]

Data set [5] can be described thus: Stability test for contrast agents in physiological saline (UV-spectrum, separation of metal ions). Type of data set: physicochemical. Conditions: 0.01M in 0.08% physiological saline, 50° C., 24 hours.
Data set [6] can be described thus: Light absorption test under X-ray irradiation. Type of data set: physicochemical. To be noted: 2.45 mole concentration, X-ray irradiated, compared to Iron and Super-Iron. The source says: The compound of the present invention, GdPC-Fuxl-6, as obtained in Example 1, and the conventional X-ray contrast agents (Iron and Super-Iron) were spread onto the sticks respectively at 2.45 mole concentration, and X-ray was irradiated thereto for comparatively measuring the degree of light absorption.

In data set [1] (80 MHz NMR), `O=C([O-])CN(CCN(CC(=O)[O-])CC(=O)[O-])CCN(CC(=O)[O-])CC(=O)[O-].[Gd+3]` [Gd-DTPA, complex of diethylenetriaminepentaactic acid (DTPA) and gadolinium (III), reference compound] came in with a T1 of 0.0484 s and a T2 of 0.0441 s. In data set [1] (300 MHz NMR), this compound showed a T1 of 0.0370 s and a T2 of 0.261 s. The wash-out time entry in data set [2] is “approximately 30 minutes”. Further, in data set [3], the half-life period entry is “about 14 minutes”.
For the compound “octa(1,4,7,10-tetraoxaundecyl)Gd-phthalocyanine [GdPC-Fuxl-6]”, in data set [1] (80 MHz NMR), the “T1 (degree of relaxation)” value was 24.3 ms, the “T2 (degree of relaxation)” value was found to be 17.4 ms, the T1 was 0.0243 s and the T2 turned out to be 0.0174 s. In data set [1] (300 MHz NMR), this compound registered a T1 of 0.0488 s and a T2 of 0.0234 s. In addition, the “contrast effects in T1 intensified images” value in data set [4] is on record as “good contrast effects”. In data set [5], the “stability (no separation of Gd and Mn ions)” value is listed as “stabilized for 24 hours”. In data set [6], the “degree of light absorption” value is on record as “superior characteristics with respect to light absorption”.
Regarding “octa(1,4,7,10-tetraoxaundecyl)Mn-phthalocyanine [MnPC-Fuxl-18]”, in data set [1] (80 MHz NMR), the “T1 (degree of relaxation)” value is 191 ms, the “T2 (degree of relaxation)” value is listed as 33.5 ms, the T1 is 0.191 s and the T2 was determined as 0.0335 s. In data set [1] (300 MHz NMR), this compound yielded a T1 of 0.317 s and a T2 of 0.0207 s. Further, the “contrast effects in T1 intensified images” value in data set [4] is recorded as “good contrast effects”. In data set [5], the “stability (no separation of Gd and Mn ions)” value is on record as “stabilized for 24 hours”.

The values above are taken from patent publication US7005517B2, “Paramagnetic metal-phthalocyanine complex compounds and contrast agent using the same” (priority 2001, dated 2006).
